The values that follow come from patent US20090233917A1, “Stroke recovery” (priority 2006, published 2009).

Data set [1] relates to MCA occlusion in rats. Put plainly: Functional recovery following MCA occlusion in rats, dose study (Examples 2, 3, 6). The data set is classed as in vivo, Sprague Dawley Rats. As for the experimental part: Fifty male Sprague Dawley Rats, each weighing 300-400 g, are operated under anesthesia to create MCA occlusion as described in Example 1, and are divided into 5 groups of 10 animals each. Each group is given arimocolomol, p.o., starting at one day after the occlusion at 25 mg/kg/d, 50 mg/kg/d, 100 mg/kg/d, or 200 mg/kg/d once daily for 35 days. One group is a control group with administration of the vehicle only.
Animals are evaluated pre-operation (day −1), then every 7 days after the operation (7, 14, 21, 28, and 35) by forelimb and hindlimb placing tests and body swing test, and given scores as described in Example 1.
On day 35 after MCAO, rats in the control group and the group with the highest dosage were sacrificed and their brains evaluated as in Example 1. The rats in other groups are sacrificed and the brains were removed and flash frozen for further analysis.

The subject of data set [2] is MCA occlusion in rats. Put plainly: Functional recovery following MCA occlusion in rats, therapeutic window / time course (Examples 4, 5). The data set is classed as in vivo, Sprague Dawley Rats. As for the experimental part:
Fifty male Sprague Dawley Rats, each weighing 300-400 g, are operated under anesthesia to create MCA occlusion as described in Example 1, and are divided into 5 groups of 10 animals each. […] One group is a control group with administration of the vehicle only at 6 hours. The animals are evaluated as described in Example 2. The experiment of Example 4 is also carried out using iroxanadine as the therapeutic agent.

The subject of data set [3] is rat cortical neurons (mixed cortical cultures). Put plainly: Oxygen/glucose deprivation (OGD) of rat cortical neurons, cell death by LDH release. Particulars: all concentrations (0.1-50 μM) except 0.2 μM; added one hour after onset of OGD. The data set is classed as cell-based, Wistar rat. As for the experimental part: Mixed cortical cultures were prepared from E18 Wistar rat embryos (National Animal Center, Kuopio, Finland). The cortices were dissected and the tissue cut into small pieces. The cells were separated by fifteen minute incubation with DNase and papain. The cells were collected by centrifugation (1500 rpm, 5 min). The tissue was triturated with a pipette and the cells were placed on poly-L-lysine coated 48-well plates, 300,000 cells/cm2, in MEM (2 g/L glucose) supplemented with 2 mM glutamine, 0.1 μg/mL gentamicin, 10% heat-inactivated fetal bovine serum (FSB-HI) and 10% heat-inactivated horse serum (HS-HI). After 3-4 hours, the medium was changed to MEM (2 g/L glucose) and supplemented with 2 mM glutamine, 0.1 μg/mL gentamicin, 5% HS-HI. After three days in vitro, cells were transferred into medium containing MEM (2 g/L glucose) supplemented with glutamine, gentamicin and 5% each of FSB-HI and HS-HI sera. On day 6 in vitro, unwanted cell division was inhibited by adding cytosine arabinoside (10 μM final concentration) for 24 hours. […]
After 24 hours, possible cell debris was removed by centrifugation (13,000 rpm, 3 min.). […] The absorbance at 340 nm was measured immediately using a 3 min. kinetic measurement protocol in Multiskan ELISA reader (Labsystems, Finland). The change in absorbance/min was determined, which is directly proportional to the released LDH (=cell death).

In a further data set the test system is healthy human volunteers. Put plainly: Pharmacokinetic clinical study in healthy human volunteers. The data set is classed as in vivo. The procedure: Seven healthy human volunteers were administered orally 400 mg t.i.d. dosing (1200 mg/day) in a double-blinded and placebo controlled clinical study.
The nature of data set [4]: Cerebrospinal fluid (CSF) levels after oral administration in humans. The conditions noted are these: 3 and 6 hours after oral administration, increasing doses. The data set is classed as in vivo, human.

Consider `[O-][n+]1cccc(/C(Cl)=N/OC[C@H](O)CN2CCCCC2)c1` [arimoclomol, N-[2-hydroxy-3-(1-piperidinyl)propoxy]-pyridine-1-oxide-3-carboximidoyl chloride], for which the “behavioral scores compared to vehicle control group” value in the data set on MCA occlusion in rats [1] (25 mg/kg/day p.o. from one day after occlusion) is “no significant difference”. Moreover, the “behavioral scores (forelimb placement, hindlimb placement, body swing tests)” value in the data set with MCA occlusion in rats [1] (50, 100 and 200 mg/kg/day p.o. from one day after occlusion, 35 days) was “significant dose related improvement”. Besides, in the data set with MCA occlusion in rats [1] (day 35, highest dosage vs control), the “changes in infarct volume” value is “no changes”. Also, the “changes in body weight” value in the data set with MCA occlusion in rats [1] (dose study, 35 days) is “no changes”. In the data set on MCA occlusion in rats [1] (p.o. once daily), the “effective doses in the stroke recovery model” value lay within 50 to 200 mg/kg/day and the “maximum effective dose in the study” value is recorded as 200 mg/kg/day. Also, the “Body Swing Test, recovery compared to vehicle group” value with MCA occlusion in rats [2] (200 mg/kg/d p.o., all start times) was “superior to the vehicle group”. Moreover, the “Hindlimb Placing Test, time course of recovery compared to vehicle group” value in the data set with MCA occlusion in rats [2] (200 mg/kg/d p.o., first dose 6, 12, 24 or 48 h after occlusion) is “superior to the vehicle group”. Also, the “Forelimb Placing Test, recovery compared to vehicle group” value with MCA occlusion in rats [2] (200 mg/kg/d p.o., first dose 6, 12, 24 or 48 h after occlusion, all groups) is listed as “superior to the vehicle group”. The “Hindlimb Placing Test, difference among treated groups” value with MCA occlusion in rats [2] (first administration 6, 12, 24, or 48 hours after occlusion) is “no statistical difference”. Also, the “Body Swing Test, performance after 21 days” value in the data set on MCA occlusion in rats [2] (first administration 6 hours after occlusion) was “continued to show improved performance”. The “Forelimb Placing Test, recovery compared to other start times” value in the data set on MCA occlusion in rats [2] (first administration 6 hours after stroke) is listed as “superior”. Besides, the “Forelimb Placing Test, recovery” value with MCA occlusion in rats [2] (first administration 48 hours after occlusion) was “significant and sustained”. For the same compound, in the data set on MCA occlusion in rats [2] (time points up to and including 21 days after occlusion), the “Body Swing Test, recovery of 48 h group compared to 6 h group” value was “indistinguishable”. For the same compound, the “cytoprotection against OGD as measured by LDH release” value in data set [3] is on record as “cytoprotective”. Moreover, the “clinical abnormalities or changes (ECGs, vital signs, clinical chemistry, physical examination, body weight)” value with healthy human volunteers (400 mg t.i.d. (1200 mg/day) orally) is on record as “No clinical abnormalities or changes were observed”. The “level of exposure of the 200 mg/kg/day rat PK study in humans” value with healthy human volunteers (400 mg t.i.d. orally, AUC and Cmax, FIG. 15) is listed as “can be safely achieved in human volunteers”. The “penetration of the human blood-brain barrier (CSF levels)” value in data set [4] was “penetrates the human blood-brain barrier”.
